Among the test systems are SF-268; DLD-1; SF-295; U-251; BT-549; 786-0; RPMI-8226; SNB-19; COLO 205; MCF7; DU-145; Hs-578T; CCRF-CEM; OVCAR-5; TK-10; HOP-92; HCT-116; A498; ACHN; HT-29.
Common to all, as to assay: NCI tumour cell line growth inhibition, 48 h

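Following 48 hours of exposure in 96-well plates, responses at five concentrations were used to interpolate endpoints linearly. Here, GI50 denotes the concentration required for 50% inhibition of growth.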 Activity calls are given as the source filed them. No stated cut-off is given here; in the data, active = GI50 up to about 1.1 µM and inactive = higher. A value given as a limit tells only on which side of the number the result lay.

Consider `Cc1cc2c(c3c1c1ccccc1n3C)C(=O)C=CC2=O`, for which the GI50 with SF-268 is 23.9 µM (inactive); with DLD-1, 6.32 µM (inactive); with SF-295, 32.4 µM (inactive); in the assay with U-251 it was 19.3 µM (inactive); with BT-549 it was 14.1 µM (inactive); in the assay on 786-0, 5.6 µM (inactive). Moreover, the GI50 was 2.82 µM (inactive) in the assay with RPMI-8226; 63.7 µM (inactive) in the assay with SNB-19; 29.1 µM (inactive) with COLO 205; 10.9 µM (inactive) in the assay with MCF7; 58.9 µM (inactive) in the assay on DU-145; 24.8 µM (inactive) in the assay on Hs-578T. For the same molecule, the GI50 was 0.631 µM (active) in the assay with CCRF-CEM; 43.7 µM (inactive) in the assay with OVCAR-5; 24.2 µM (inactive) with TK-10; 12.9 µM (inactive) in the assay on HOP-92; 18.8 µM (inactive) with HCT-116; 47.5 µM (inactive) in the assay with A498. The results for the GI50 with ACHN and with HT-29 were 21.3 µM (inactive) and 31 µM (inactive), respectively.

Consider `COC(=O)c1sc(C(=O)OC)c2c1CSC2`, for which the GI50 was 54.1 µM (inactive) in the assay with SF-268; > 100 µM (inactive) in the assay with DLD-1; 51.3 µM (inactive) in the assay with SF-295; 40.3 µM (inactive) in the assay on U-251; > 100 µM (inactive) with BT-549; 53.6 µM (inactive) in the assay with 786-0. Further, the GI50 with RPMI-8226 is > 100 µM (inactive); in the assay on SNB-19, 51.8 µM (inactive); in the assay on COLO 205 it was > 100 µM (inactive); in the assay with MCF7, > 100 µM (inactive); in the assay on DU-145, > 100 µM (inactive); with Hs-578T, 97.9 µM (inactive). For the same molecule, the GI50 was > 100 µM (inactive) in the assay on CCRF-CEM; > 100 µM (inactive) in the assay with OVCAR-5; > 100 µM (inactive) in the assay on TK-10; 32 µM (inactive) in the assay with HOP-92; 97.9 µM (inactive) in the assay with HCT-116; > 91 µM (inactive) in the assay with A498. The GI50 in the assay with ACHN and with HT-29 was > 100 µM (inactive) throughout.

Turning to `N#CC(NNC(=O)Cc1ccccc1)c1c(O)ccc2ccccc12` (stereo unspecified), the GI50 was 3.45 µM (inactive) in the assay on SF-268; 3.96 µM (inactive) in the assay on DLD-1; 4.63 µM (inactive) with SF-295; 3.72 µM (inactive) in the assay on U-251; 1.73 µM (inactive) in the assay on BT-549; 4.6 µM (inactive) in the assay on 786-0. The GI50 in the assay with RPMI-8226 was 3.63 µM (inactive); with SNB-19, 9.79 µM (inactive); in the assay with COLO 205, 24.7 µM (inactive); with MCF7, 3.15 µM (inactive); with DU-145, 10.2 µM (inactive); with Hs-578T, 7.64 µM (inactive). Also, the GI50 in the assay on CCRF-CEM is 1.2 µM (inactive); in the assay with OVCAR-5 it was 13.9 µM (inactive); in the assay on TK-10 it was 20.3 µM (inactive); with HOP-92 it was 5 µM (inactive); in the assay with HCT-116, 3.46 µM (inactive); in the assay on A498, 30.3 µM (inactive). The GI50 is 3.4 µM (inactive) with ACHN and 11.3 µM (inactive) with HT-29.

Regarding `CSc1nc(NC2OC(COC(C)=O)C(OC(C)=O)C(OC(C)=O)C2OC(C)=O)c2c(n1)OCC2=O` (stereo unspecified), the GI50 in the assay on SF-268, in the assay with DLD-1, with SF-295, in the assay on U-251, with 786-0 and in the assay on RPMI-8226 was > 100 µM (inactive) throughout. The GI50 in the assay on SNB-19, in the assay on COLO 205, with CCRF-CEM, in the assay on OVCAR-5, in the assay on TK-10 and in the assay with HOP-92 was > 100 µM (inactive) in each case. Further, the GI50 in the assay with HCT-116, in the assay on A498, in the assay on ACHN and with HT-29 was > 100 µM (inactive) in each case.

The record behind these values is ChEMBL document CHEMBL1201862, “PubChem BioAssay data set” (2004).
